Results from US8759536B2, “Rhodanine derivatives, method for preparing same, and pharmaceutical composition for the prevention or treatment of aids containing the rhodanine derivatives as active ingredients” (Avixgen Inc., priority 2010, dated 2014).

System: HIV
Test: Assay for inhibitory activity against HIV (p24 ELISA, infected MT-4 cells)
Assay type: cell-based
Details: Human immunodeficiency virus 1, MT4; MT-4 cells infected with pNL4-3-derived HIV; p24 ELISA after 48 + 48 hrs; read-out: Conc. for Inhibition of HIV Activity (IC50)
Experimental: The rhodanine derivatives of the present invention were assayed for inhibitory activity against HIV as follows.
A pNL4-3 vector carrying an HIV genome was transduced into 293FT cells. […] 293FT cells were seeded at a density of 3.0×10^5 cells/well into 6-well plates containing antibiotic-free DMEM supplemented with 10% FBS and grown for 48 hrs. Upon 90-95% confluency, the transduction was performed.
The DNA (pNL4-3) was added at a final concentration of 10 ng/mL to 250 μL of the reduced serum medium Opti-MEM I (GIBCO™, USA). Separately, 4 μL of Lipofectamine™ 2000 (Invitrogen, USA) was mixed with 250 μL of Opti-MEM I (GIBCO™), and incubated at room temperature for 5 min. The DNA (pNL4-3) was mixed at a ratio of 1:2 with the lipofectamine and reacted at room temperature for 20 min to form a DNA-lipofectamine complex. After removal of the medium from the cell culture, the mixture containing the DNA-lipofectamine complex was added to the cells and incubated for 4 hrs in a CO2 incubator. Then, the cell culture medium was replaced with a fresh antibiotic-free, 10% FBS-supplemented DMEM, followed by incubation for an additional 48 hrs. The HIV-infected cell culture was centrifuged at 1,500 rpm for 5 min to give a virus supernatant.
MT-4 cells were plated at a density of 1.0×10^6 cells/mL into 6-well plates containing RPMI supplemented with 10% FBS and incubated for 4 hrs before infection at a ratio of 1:1 with the virus supernatant. The cells were incubated for 48 hrs in a CO2 incubator, after which the culture medium was replaced with a fresh one. Again, incubation was continued for an additional 72 hrs to amplify the virus. After centrifugation at 1,500 rpm for 5 min, the virus supernatant thus obtained was examined for virus density using a Virononstika HIV-1 Antigen Microelisa system kit (bioMerieux, Inc. Netherland).
2. Assay for Inhibitory Activity Against HIV
The rhodanine derivatives prepared in Examples 1 to 38 were dissolved in DMSO to prepare respective 10 mM or 20 mM stocks, and stored at −20° C. The stocks were diluted to a starting concentration of 200 μM in DMSO before use in experiments.
MT-4 cells were suspended at a density of 4×10^5 cells in 200 μL of RPMI 1640 (Gibco, 10% FBS) per well of 24-well plates, and infected with 200 μL of a virus supernatant containing 2×10^5 pg/mL to give a total volume of 400 μL. After the stocks of the rhodanine derivatives were […] diluted to 200 μM in DMSO, 2 μL of each dilution was added to the cells to a final concentration of 1 μM or less. For a positive control, 10 μM AZT (azidothymidine, Sigma, USA) was used at a final concentration of 50 nM while DMSO was used at a final concentration of 0.5% as a negative control. The cells were cultured for 48 hrs in a CO2 incubator (37° C., 5% CO2), and the culture medium was replaced by RPMI 1640 containing the rhodanine derivative at a final concentration of 1 μM, followed by incubation for an additional 48 hrs. Virus soups were separated from cells by centrifugation at 1,500 rpm for 5 min and then at 13, 000 rpm for 5 min. ELISA for p24 concentrations was carried out using a Virononstika HIV-1 Antigen Microelisa system kit (bioMerieux, Inc. Netherland) to determine the inhibitory activity of each of the rhodanine derivatives against HIV.

Q: How did the IC50 turn out when `O=C1C(=Cc2ccc(-c3ccc([N+](=O)[O-])cc3)o2)SC(=S)N1c1cccc(F)c1` [Example 13, 3-(3-fluoro-phenyl)-5-[5-(4-nitro-phenyl)-furan-2-ylmethylene]-2-thioxo-thiazolidin-4-one] was run?
A: The IC50 was 500 nM.

Q: `Cc1ccc(N2C(=O)/C(=C/c3ccc(-c4cccc([N+](=O)[O-])c4)o3)SC2=S)c(C)c1` [Example 1, 3-(2,4-Dimethyl-phenyl)-5-[5-(3-nitro-phenyl)-furan-2-ylmethylene]-2-thioxo-thiazolidin-4-one] was tested. Which IC50 did it give?
A: The IC50 was 800 nM.

Q: With `CC(C)OC(=O)c1ccc(-c2ccc(/C=C3/SC(=S)NC3=O)o2)cc1` [Example 23, 4-[5-(4-oxo-2-thioxo-thiazolidin-5-ylidenemethyl)-furan-2-yl]-benzoic acid isopropylester] as the molecule, how does the IC50 read?
A: Its IC50 is 400 nM.

Q: `COc1ccc(-c2ccc(/C=C3\SC(=S)N(CC(=O)O)C3=O)o2)c([N+](=O)[O-])c1` [Example 21, {5-[5-(4-methoxy-2-nitro-phenyl)-furan-2-ylmethylene]-4-oxo-2-thioxo-thiazolidin-3-yl}-acetic acid] was tested. Which IC50 did it give?
A: The IC50 was 1000 nM.

Q: With `O=C1/C(=C/c2ccc(-c3ccc(Cl)cc3Cl)o2)SC(=S)N1c1cccc(F)c1` [Example 8, 5-[5-(2,4-dichloro-phenyl)-furan-2-ylmethylene]-3-(3-fluoro-phenyl)-2-thioxo-thiazolidin-4-one] as the molecule, how does the IC50 read?
A: The IC50 was 500 nM.

Q: Which IC50 does the source give for `O=C(O)CN1C(=O)/C(=C/c2ccc(-c3cccc([N+](=O)[O-])c3)o2)SC1=S` [Example 38, {5-[5-(3-nitro-phenyl)-furan-2-ylmethylene]-4-oxo-2-thioxo-thiazolidin-3-yl}-acetic acid] here?
A: Its IC50 is 750 nM.

Q: How did the IC50 turn out when `CCCOC(=O)c1cc(-c2ccc(/C=C3/SC(=S)NC3=O)o2)ccc1Cl` [Example 29, 2-chloro-5-[5-(4-oxo-2-thioxo-thiazolidin-5-ylidenemethyl)-furan-2-yl]-benzoic acid propyl ester] was run?
A: The IC50 was 500 nM.

Q: With `CC(=O)CCN1C(=O)/C(=C/c2ccc(-c3ccc(Br)cc3)o2)SC1=S` [Example 5, 5-[5-(4-bromo-phenyl)-furan-2-ylmethylene]-3-(3-oxo-butyl)-2-thioxo-thiazolidin-4-one] as the molecule, how does the IC50 read?
A: The IC50 was 1000 nM.

Q: How did the IC50 turn out when `O=C1C(=Cc2ccc(-c3cc([N+](=O)[O-])ccc3Br)o2)SC(=S)N1c1ccc(I)cc1` [Example 16, 5-[5-(2-bromo-5-nitro-phenyl)-furan-2-ylmethylene]-3-(4-iodo-phenyl)-2-thioxo-thiazolidin-4-one] was run?
A: Its IC50 is 500 nM.
